Test results published in patent US20250235462A1, “NOVEL CAPSID ASSEMBLY INHIBITORS” (AM SCIENCES INC, priority 2021, published 2025).
Where two headings read alike, the source gives them in different places.

Experiments:
intracellular HBV DNA = assay: Real-time PCR for intracellular HBV DNA in HepAD38 cells; assay type: cell-based, hepatitis B virus (HBV); conditions: treated for 65 hours, intracellular HBV DNA by real-time PCR
Protocol: HepAD38 cells were cultured in DMEM medium (Welgene) supplemented with 200 unit/mL penicillin, 200 μg/mL streptomycin, and 10% FBS. During maintenance and passage, the cells were cultured together with 0.4 μg/mL tetracycline. Two days before the treatment with compounds for inducing HBV replication was started, the medium was replaced with a tetracycline-free complete growth medium. […]
HepAD38 cells were treated with a compound for 65 hours and then recovered, and intracellular HBV DNA was extracted therefrom according to the protocol in the DNeasy Blood & Tissue Kit (Qiagen). The primers and probes used to quantify HBV DNA were 5′-[…]-3′, 5′-[…]-3′, and 5′-/56-FAM/TGT CCT GGT/ZEN/[…]/3IABKFQ/-3′. The HBV DNA was amplified by real-time PCR assay using LightCycler 480 (Roche) (J. Virol., 2018, 92(16):e00339-18). All of the processes were confirmed in duplicate.

[1] = target: Protein (capsid assembly) (Hepatitis B virus genotype D subtype ayw, UniProt P03146); assay: Protein inhibition (capsid assembly inhibition), Table 1; assay type: biochemical; conditions: for EC50: NVR value of the same run in brackets, read-out: Protein EC50
HepAD38 cells = assay: Cell viability assay (EZ-Cytox) in HepAD38 cells; assay type: cell-based; conditions: 65 hours of treatment
Protocol: (§1) HepAD38 cells were cultured for 2 days in Dulbecco's Modified Eagle's medium (Welgene, LM001-05) supplemented with 10% FBS without tetracycline. The cells were seeded in 48-well culture plates (1×10^5 cells/well) and treated with each compound at five concentrations (0 μM (0.8% DMSO as a control), 33 μM, 50 μM, 66 μM, and 100 μM). After 65 hours of treatment, viability was measured using EZ-Cytox cell viability assay kit (Daeil Lab Service) according to the manufacturer's instructions. The absorbance was measured at 450 nm using a spectrophotometer (Spark, Tecan). Here, NVR-3-778 (denoted as NVR) was used as a positive control.

[2] = Cell viability assay (EZ-Cytox) in HepAD38 cells; assay type: cell-based; conditions: human, 65 hours of treatment; for CC50 at 65 h: read-out: Cytotoxicity CC50; for viability at 65 h, 100 µM: read-out: Cytotoxicity % Livability (@100 μM)
Protocol: as §1

[3] = Hepatitis B virus, HePAD38, 65 h
[4] = @30 μM, read-out: Protein % inhibition rate (@30 μM)

Sequence of Protein (capsid assembly) (P03146 whole entry): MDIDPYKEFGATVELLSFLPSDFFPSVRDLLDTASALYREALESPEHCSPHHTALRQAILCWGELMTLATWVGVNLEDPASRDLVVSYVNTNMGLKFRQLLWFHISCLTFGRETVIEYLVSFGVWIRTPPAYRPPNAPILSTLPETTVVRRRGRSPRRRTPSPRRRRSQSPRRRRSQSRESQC

Question: Which IC50 (intracellular HBV DNA) does the source give for `O=C(Nc1ccc(F)c(Cl)c1)N(Cc1nnc2n1CCOC2)c1ccc2c(c1)OCO2` [Example 4, 1-(Benzo[d][1,3]dioxol-5-yl)-3-(3-chloro-4-fluorophenyl)-1-((6,8-dihydro-5H-[1,2,4]triazolo[3,4-c][1,4]oxazin-3-yl)methyl)urea] here?
Answer: 250 nM

Question: And the “Protein % inhibition rate (@30 μM)” value ([1]; @30 μM)?
Answer: 84%

Question: What about the EC50 [1] of the same compound?
Answer: 6.8 µM

Question: And the CC50 (HepAD38 cells; read-out: Cytotoxicity CC50)?
Answer: > 100 µM

Question: Which IC50 (intracellular HBV DNA; [3]) does the source give for `COc1ccc(N(Cc2nnc(-c3ccccc3)n2C)C(=O)Nc2ccc(F)c(Cl)c2)cc1` [Example 24, 3-(3-Chloro-4-fluorophenyl)-1-(4-methoxyphenyl)-1-((4-methyl-5-phenyl-4H-1,2,4-triazol-3-yl)methyl)urea] here?
Answer: > 3300 nM

Question: What about the inhibition at 30 µM [1, 4] of the same compound?
Answer: -1%

Question: And the CC50 at 65 h [2]?
Answer: > 100 µM

Question: What does the source list for `COc1ccc(N(Cc2nnc(C)n2C(C)C)C(=O)Nc2ccc(F)c(Cl)c2)cc1` [Example 26, 3-(3-Chloro-4-fluorophenyl)-1-((4-isopropyl-5-methyl-4H-1,2,4-triazol-3-yl)methyl)-1-(4-methoxyphenyl)urea]?
Answer: IC50 (intracellular HBV DNA; [3]): 184 nM; EC50 [1]: 6.2 µM; inhibition at 30 µM ([1]; read-out: Protein % inhibition rate (@30 μM), @30 μM): 2%; CC50 at 65 h [2]: > 100 µM; viability at 65 h, 100 µM [2]: 91.5%

Question: With `COc1ccc(N(Cc2nnc3n2CCOCC3)C(=O)Nc2ccc(F)c(Cl)c2)cc1` [Example 27, 3-(3-Chloro-4-fluorophenyl)-1-(4-methoxyphenyl)-1-((5,6,8,9-tetrahydro-[1,2,4]triazolo[4,3-d][1,4]oxazepin-3-yl)methyl)urea] as the compound, how does the IC50 (intracellular HBV DNA; [3]) read?
Answer: 32 nM

Question: What about the inhibition at 30 µM [1, 4] of the same compound?
Answer: 65%

Question: And the EC50 [1]?
Answer: 2.3 µM

Question: And the CC50 at 65 h [2]?
Answer: > 100 µM

Question: And the viability at 65 h, 100 µM [2]?
Answer: 91%

Question: What does the source list for `CC(c1nnc2n1CCOCC2)N(C(=O)Nc1ccc(F)c(Cl)c1)c1ccc2c(c1)OCO2` (centres unmarked) [Example 33, 1-(Benzo[d][1,3]dioxol-5-yl)-3-(3-chloro-4-fluorophenyl)-1-(1-(5,6,8,9-tetrahydro-[1,2,4]triazolo[4,3-d][1,4]oxazepin-3-yl)ethyl)urea]?
Answer: IC50 (intracellular HBV DNA; [3]): 360 nM; inhibition at 30 µM [1, 4]: 26%; EC50 [1]: 4.3 µM; CC50 at 65 h [2]: > 100 µM; viability at 65 h, 100 µM [2]: 88.3%

Question: For `O=C(Nc1ccc(F)c(Cl)c1)N(Cc1nnc2n1CCCCC2)c1ccon1` [Example 36, 3-(3-Chloro-4-fluorophenyl)-1-(isoxazol-3-yl)-1-((6,7,8,9-tetrahydro-5H-[1,2,4]triazolo[4,3-a]azepin-3-yl)methyl)urea], which IC50 (intracellular HBV DNA; [3]) is on record?
Answer: 400 nM

Question: What about the inhibition at 30 µM [1, 4] of the same compound?
Answer: 77.6%

Question: What about the EC50 [1] of the same compound?
Answer: 1.5 µM

Question: And the CC50 at 65 h [2]?
Answer: > 100 µM

Question: And the viability at 65 h, 100 µM [2]?
Answer: 90.4%

Question: With `COc1ccc(N(Cc2nnc3n2CCOCC3)C(=O)Nc2ccc(F)c(Cl)c2)cn1` [Example 40, 3-(3-Chloro-4-fluorophenyl)-1-(6-methoxypyridin-3-yl)-1-((5,6,8,9-tetrahydro-[1,2,4]triazolo[4,3-d][1,4]oxazepin-3-yl)methyl)urea] as the compound, how does the IC50 (intracellular HBV DNA; [3]) read?
Answer: 84 nM

Question: What about the inhibition at 30 µM [1, 4] of the same compound?
Answer: 82.8%

Question: And the EC50 [1]?
Answer: 1.5 µM

Question: What about the CC50 at 65 h [2] of the same compound?
Answer: > 100 µM

Question: What about the viability at 65 h, 100 µM [2] of the same compound?
Answer: 88.6%

Question: What about the “Cytotoxicity % Livability (@100 μM)” value (HepAD38 cells; @100 μM) of the same compound?
Answer: 100.3%

Question: Which IC50 (intracellular HBV DNA; [3]) does the source give for `O=C(Nc1cccc(Cl)c1)N(Cc1nnc2n1CCCC2)c1ccc2c(c1)OCO2` [Example 41, 1-(Benzo[d][1,3]dioxol-5-yl)-3-(3-chlorophenyl)-1-((5,6,7,8-tetrahydro-[1,2,4]triazolo[4,3-a]pyridin-3-yl)methyl)urea] here?
Answer: 230 nM

Question: What about the inhibition at 30 µM [1, 4] of the same compound?
Answer: 59%

Question: What about the EC50 [1] of the same compound?
Answer: 2.9 µM

Question: What about the CC50 at 65 h [2] of the same compound?
Answer: > 100 µM

Question: What about the viability at 65 h, 100 µM [2] of the same compound?
Answer: 97.1%

Question: With `O=C(Nc1ccc(F)c(Cl)c1)N(Cc1nnc2n1CCOC2)c1ccc2c(c1)OCO2` [Example 42, 1-(Benzo[d][1,3]dioxol-5-yl)-3-(3-chloro-4-fluorophenyl)-1-((6,8-dihydro-5H-[1,2,4]triazolo[3,4-c][1,4]oxazin-3-yl)methyl)urea] as the compound, how does the IC50 (intracellular HBV DNA; [3]) read?
Answer: 210 nM

Question: What about the “Protein % inhibition rate (@30 μM)” value ([1]; @30 μM) of the same compound?
Answer: 20%

Question: And the EC50 [1]?
Answer: 6.8 µM

Question: And the CC50 at 65 h [2]?
Answer: > 100 µM

Question: What about the viability at 65 h, 100 µM [2] of the same compound?
Answer: 83.7%

Question: Which results are given for `COc1ccc(N(Cc2nnc3n2CCCC3)C(=O)Nc2ccc(F)c(Cl)c2)cc1` [Example 43, 3-(3-Chloro-4-fluorophenyl)-1-(4-methoxyphenyl)-1-((5,6,7,8-tetrahydro-[1,2,4]triazolo[4,3-a]pyridin-3-yl)methyl)urea]?
Answer: IC50 (intracellular HBV DNA; [3]): 790 nM; inhibition at 30 µM [1, 4]: 96.2%; EC50 [1]: 3.3 µM; CC50 at 65 h [2]: > 100 µM; viability at 65 h, 100 µM [2]: 103%

Question: Which IC50 (intracellular HBV DNA; [3]) does the source give for `COc1ccc(N(Cc2nnc3n2CCCCC3)C(=O)Nc2ccc(F)c(Cl)c2)cn1` [Example 44, 3-(3-Chloro-4-fluorophenyl)-1-(6-methoxypyridin-3-yl)-1-((6,7,8,9-tetrahydro-5H-[1,2,4]triazolo[4,3-a]azepin-3-yl)methyl)urea] here?
Answer: 50 nM

Question: And the inhibition at 30 µM [1, 4]?
Answer: 82%

Question: And the EC50 [1]?
Answer: 1.4 µM

Question: And the CC50 at 65 h [2]?
Answer: > 100 µM

Question: And the viability at 65 h, 100 µM [2]?
Answer: 103%
